Experimental findings from patent US10604555B2, “GIP derivatives and uses thereof” (priority 2018, dated 2020) are described below.

pEC50: −log10 of the molar value. *1 amine or outer side, *2 acyl side, *3 side chain or, on linkers, in order; H or OH if unused. Where a SMILES comes first, the peptide text is derived from it. Side-chain parts run from the residue outwards. [ ]: non-standard residue; d: D form. The star is where a group is joined. C18 diacid = O=C(O)CCCCCCCCCCCCCCCCC(=O)*; γGlu = O=C(O)[C@H](CCC(=O)[*:2])N[*:1]; Nle = CCCC[C@H](N)C(=O)O; Aib = CC(C)(N)C(=O)O

For data set [1], the target named is T1, human GIP receptor (Homo sapiens, UniProt P48546).
T1 construct: expressed in transfected cells; host or cells: BHK (parent line BHKTS13), BHK CRE luc2P hGIPR clone #5
T1 sequence (P48546 22-466): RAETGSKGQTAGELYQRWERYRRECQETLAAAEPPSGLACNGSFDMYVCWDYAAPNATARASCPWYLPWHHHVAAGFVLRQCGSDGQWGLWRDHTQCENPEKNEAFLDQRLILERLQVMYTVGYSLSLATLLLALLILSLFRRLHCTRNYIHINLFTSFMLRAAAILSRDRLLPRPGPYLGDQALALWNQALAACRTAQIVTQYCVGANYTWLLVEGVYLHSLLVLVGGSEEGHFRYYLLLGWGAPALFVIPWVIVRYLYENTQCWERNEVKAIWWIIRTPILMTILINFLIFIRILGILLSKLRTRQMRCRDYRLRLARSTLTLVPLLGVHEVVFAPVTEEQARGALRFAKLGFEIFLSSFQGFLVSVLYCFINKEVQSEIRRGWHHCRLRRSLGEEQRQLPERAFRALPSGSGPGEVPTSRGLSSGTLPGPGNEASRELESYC
The data set is described as follows: In vitro potency (CRE luciferase; whole cells), BHK CRE luc2P hGIPR. The settings on record: 0.2% HSA. The format is cell-based. In outline: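 BHK clones carrying a CRE luciferase element, each transfected with one human receptor, were seeded at 5000 cells/well overnight. Compounds were diluted in buffer with 1% ovalbumin and 0.1% Pluronic F-68, with or without human serum albumin. Luminescence was read after steadylite plus; non-linear log(agonist)-response fit, averaged over at least two replicates.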

Data set [2] can be described thus: Pharmacokinetic study in minipigs, terminal half-life after i.v. administration. The settings on record: female, Göttingen, minipig, plasma, iv, 5 nmol/kg; read-out: t1/2 (hours) harmonic mean (converted). The format is in vivo.
Description: This is done in a pharmacokinetic (PK) study, where the terminal half-life of the derivative in question is determined. By terminal half-life is generally meant the period of time it takes to halve a certain plasma concentration, measured after the initial distribution phase.
Female Göttingen minipigs were obtained from Ellegaard Göttingen Minipigs (Dalmose, Denmark) approximately 7-14 months of age and weighing from approximately 16-35 kg were used in the studies. The minipigs were housed individually and fed restrictedly once daily with SDS minipig diet (Special Diets Services, Essex, UK).
After at 3 weeks of acclimatisation two permanent central venous catheters were implanted in vena cava caudalis in each animal. The animals were allowed 1 week recovery after the surgery, and were then used for repeated pharmacokinetic studies with a suitable wash-out period between successive derivative dosing.
Blood samples (for example 0.8 ml) were collected in EDTA buffer (8 mM) and then centrifuged at 4° C. and 1942G for 10 minutes.
Individual plasma concentration-time profiles were analysed by a non-compartmental model in Phoenix WnNonLin ver. […] (Pharsight Inc., Mountain View, Calif., USA), and the resulting terminal half-lives (harmonic mean) determined.

The molecule `CCCC[C@H](NC(=O)[C@H](C)NC(=O)[C@@H](NC(=O)[C@H](CO)NC(=O)[C@H](Cc1ccc(O)cc1)NC(=O)[C@H](CC(=O)O)NC(=O)[C@H](CO)NC(=O)[C@@H](NC(=O)[C@H](Cc1ccccc1)NC(=O)[C@@H](NC(=O)CNC(=O)[C@H](CCC(=O)O)NC(=O)[C@H](C)NC(=O)[C@@H](Cc1ccc(O)cc1)NC(C)=O)[C@@H](C)O)[C@@H](C)CC)[C@@H](C)CC)C(=O)N[C@@H](CC(=O)O)C(=O)N[C@@H](CCCCN)C(=O)N[C@H](C(=O)N[C@@H](CCCNC(=N)N)C(=O)N[C@@H](CCC(N)=O)C(=O)N[C@@H](CCC(N)=O)C(=O)N[C@@H](CC(=O)O)C(=O)N[C@@H](Cc1ccccc1)C(=O)N[C@H](C(=O)N[C@@H](CCCCNC(=O)CC[C@H](NC(=O)CC[C@H](NC(=O)CC[C@H](NC(=O)CCCCCCCCCCCCCCCCC(=O)O)C(=O)O)C(=O)O)C(=O)O)C(=O)N[C@@H](Cc1c[nH]c2ccccc12)C(=O)N[C@@H](CC(C)C)C(=O)N[C@@H](CC(C)C)C(=O)N[C@@H](C)C(=O)N[C@@H](CCC(N)=O)C(=O)N[C@@H](CCCCN)C(=O)NCC(=O)O)C(C)C)[C@@H](C)CC` [Compound 7, N{1}-acetyl, N{Epsilon-24}-[(4S)-4-carboxy-4-[[(4S)-4-carboxy-4-[[(4S)-4-carboxy-4-(17-carboxyheptadecanoylamino)butanoyl]amino]butanoyl]amino]butanoyl]-[D-Tyr1,Nle14,Arg18, Lys24]-hGIP(1-31)] gave a negative-log EC50 (pEC50) in data set [1] of 10.31. Besides, the half-life in data set [2] is 84 h.
The corresponding values for `CCCC[C@H](NC(=O)[C@H](C)NC(=O)[C@@H](NC(=O)[C@H](CO)NC(=O)[C@H](Cc1ccc(O)cc1)NC(=O)[C@H](CC(=O)O)NC(=O)[C@H](CO)NC(=O)[C@@H](NC(=O)[C@H](Cc1ccccc1)NC(=O)[C@@H](NC(=O)CNC(=O)[C@H](CCC(=O)O)NC(=O)C(C)(C)NC(=O)[C@@H](N)Cc1ccc(O)cc1)[C@@H](C)O)[C@@H](C)CC)[C@@H](C)CC)C(=O)N[C@@H](CC(=O)O)C(=O)N[C@@H](CCCCN)C(=O)N[C@H](C(=O)N[C@@H](CCCNC(=N)N)C(=O)N[C@@H](CCC(N)=O)C(=O)NC(C)(C)C(=O)N[C@@H](CC(=O)O)C(=O)N[C@@H](Cc1ccccc1)C(=O)N[C@H](C(=O)N[C@@H](CCCCNC(=O)CC[C@H](NC(=O)CC[C@H](NC(=O)CC[C@H](NC(=O)CCCCCCCCCCCCCCCCC(=O)O)C(=O)O)C(=O)O)C(=O)O)C(=O)N[C@@H](Cc1c[nH]c2ccccc12)C(=O)N[C@@H](CC(C)C)C(=O)N[C@@H](CC(C)C)C(=O)N[C@@H](C)C(=O)N[C@@H](CCC(N)=O)C(=O)N[C@@H](CCCCN)C(=O)NCC(=O)O)C(C)C)[C@@H](C)CC` [Compound 11, N{Epsilon-24}-[(4S)-4-carboxy-4-[[(4S)-4-carboxy-4-[[(4S)-4-carboxy-4-(17-carboxyheptadecanoylamino)butanoyl]amino]butanoyl]amino]butanoyl]-[Aib2,Nle14,Arg18,Aib20,Lys24]-hGIP(1-31)] (H-Y[Aib]EGTFISDYSIA[Nle]DKIRQ[Aib]DFVK([γGlu-γGlu-γGlu-C18 diacid])WLLAQKG-OH) are 11.03 and 89 h.

As usually defined, the pEC50 is −log10 of the EC50, conventionally taken in molar units.
